The results in this text go back to patent US10640545B2 (THE GOVERNORS OF THE UNIVERSITY OF ALBERTA, priority 2017, dated 2020).

Data set [1] concerns recombinant human neprilysin (rhNEP, Sino Biological). The data set is described as follows: rhNEP diluted in Tris buffer (100 mM Tris, 100 mM NaCl, 10 μM ZnCl2, pH 7.5), 3.1 nM final concentration. As to conditions: 37° C., up to 72 h.
A short description of a further data set: in vitro. The conditions noted are these: human, plasma.
The target in data set [2] is T1, wild-type rat apelin receptor (Rattus norvegicus, UniProt Q9JHG3).
T1 construct: expressed in transfected cells
T1 sequence (Q9JHG3 1-377): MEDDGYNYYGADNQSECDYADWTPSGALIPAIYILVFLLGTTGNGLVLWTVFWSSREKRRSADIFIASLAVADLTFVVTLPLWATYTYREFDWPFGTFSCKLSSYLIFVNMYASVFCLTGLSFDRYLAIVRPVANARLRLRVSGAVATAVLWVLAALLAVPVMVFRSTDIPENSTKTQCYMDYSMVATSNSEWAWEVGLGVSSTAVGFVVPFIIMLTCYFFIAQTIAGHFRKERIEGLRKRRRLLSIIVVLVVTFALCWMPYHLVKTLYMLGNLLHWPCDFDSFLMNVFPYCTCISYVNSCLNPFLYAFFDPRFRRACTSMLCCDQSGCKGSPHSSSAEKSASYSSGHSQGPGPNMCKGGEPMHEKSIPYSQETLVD
The data set is described as follows: Radioligand binding, displacement of [125I]-pyr-1-apelin-13 on CHO cell membranes. The conditions noted are these: for Ki: displacement of [125I]-pyr-1-apelin-13 (0.2 nM), CHO membranes, rat apelin receptor-EGFP, means ± SE, read-out: Affinity Ki; for receptor binding affinity (in words): rat apelin receptor. On the procedure:
This experiment evaluated the ability of peptides of the present embodiments to bind to the wild-type rat apelin receptor, in order to examine the impact of synthetic modification within the critical RPRL motif of the apelin peptides.
Membrane preparations from CHO cells stably expressing the wild-type rat apelin receptor-EGFP were prepared as previously described (Gerbier et al., New Structural Insights Into The Apelin Receptor: Identification Of Key Residues For Apelin binding; FASEB J. 2015, 29, 314-322; Iturrioz et. al., Development Of Original Metabolically-Stable Apelin-17 Peptides With Diuretic And Cardiovascular Effects; FASEB J. 2017, 31, 687-700.) Crude membrane preparations (1 μg total mass of membranes/assay) were incubated for 3 h at 20° C. with 0.2 nM [^125I]-pyr-1-apelin-13 (monoiodinated on Lys^8 with Bolton-Hunter reagent, Perkin Elmer, Wellesley, Mass., USA) in binding buffer (50 mM HEPES, 5 mM MgCl2 1149 pH 7.5, BSA 1%) alone or in presence of the different compounds at various concentrations. The reaction was stopped by adding 4 mL of cold binding buffer, filtered on Whatman GF/C filters and washed with 5 mL of cold binding buffer. Radioactivity was then counted using a Wizard 1470 Wallac gamma counter (Perkin Elmer, Turku, Finland). Binding experiment data were analyzed with Graph Pad Prism.

The next data set deals with anesthetized mice. Kind of data set: Blood pressure assay in anesthetized mice. The data set is classed as in vivo. As to conditions: 1.4 μM/kg body weight injected; for blood pressure lowering (hypotensive) effect: SBP, DBP, MABP. As to the method:
Synthetic peptides 8-19 were tested for blood pressure lowering abilities in anesthetized mice. Apelin peptides were injected through […], monitoring blood pressure (BP) and heart rate (HR) over 60 minutes.
Mice were anaesthetized with 1.5% isoflurane/oxygen, and body temperature was monitored and maintained at 36° C. by a heating pad. The aorta was cannulated via the right carotid artery using a PV loop catheter (Model 1.2F from Scisense, Transonic) in order to continuously record arterial blood pressure and heart rate (LabScribe 2.0, Scisense). […] Results are reported as systolic blood pressure (SBP), diastolic blood pressure (DBP), mean arterial blood pressure (MABP) and heart rate (HR).
Apelin peptides 11, 56-59 as well as the KLKB1-cleavage fragments 54 and 55 were tested for blood pressure lowering abilities in anesthetized mice.
Mice were anesthetized with 1.5% isoflurane/oxygen, and body temperature was monitored and maintained at 36° C. by a heating pad. The aorta was cannulated via the right carotid artery using a PV loop catheter (model 1.2F from Scisense, Transonic) in order to continuously record arterial blood pressure and heart rate (LabScribe 2.0, Scisense). Compounds 11, and 54-59 or 55-59 (1.4 μM/kg body weight) or the same volume of saline was injected via the right jugular vein. Results are reported as systolic blood pressure (SBP), diastolic blood pressure (DBP), mean arterial blood pressure (MABP), and heart rate (HR) shown in FIGS. 15A-D.
Apelin peptides were delivered systemically via the right internal jugular vein while blood pressure (BP) and heart rate (HR) were continuously monitored in the aorta cannulated via the right carotid artery. All N-terminally extended apelin peptides, except 58, show pronounced and time-stable blood pressure lowering effects (FIGS. 15a-d). […] This correlates with the results obtained from the Ca^2+ mobilization assay.

Entries after “also recorded” stand apart in the source; their conditions may differ. Where a SMILES comes first, the peptide text is derived from it. [ ]: non-standard residue; d: D form. Phe(4-Br) = N[C@@H](Cc1ccc(Br)cc1)C(=O)O; NMeL = CN[C@@H](CC(C)C)C(=O)O; pGlu = O=C1CC[C@@H](C(=O)O)N1; αMeL = CC(C)C[C@](C)(N)C(=O)O; Nle = CCCC[C@H](N)C(=O)O; Aib = CC(C)(N)C(=O)O

For “pGlu-Arg-Pro-azaArg-Leu-Ser-His-Lys-Gly-Pro-Nle-Aib-paraBrPhe”, the cleaved bond entry in data set [1] is “Nle11-Aib12, minor”.

For “pGlu-Arg-Pro-Arg-NMeLeu-Ser-His-Lys-Gly-Pro-Nle-Aib-paraBrPhe”, the cleaved bond result in data set [1] is “Nle11-Aib12, minor”.

Take “pGlu-Arg-Pro-Arg-azaLeu-Ser-His-Lys-Gly-Pro-Nle-Aib-paraBrPhe”: in data set [1], the cleaved bond entry is listed as “Nle11-Aib12, minor”.

As to “Lys-Phe-Arg-Arg-Gln-Arg-Pro-Arg-azaLeu-Ser-His-Lys-Gly-Pro-Nle-Aib-paraBrPhe”, in data set [1], the cleaved bond result is reported as “Nle15-Aib16, minor”.

Take “Lys-Phe-Arg-Arg-Gln-Arg-Pro-Arg-αMeLeu-Ser-His-Lys-Gly-Pro-Nle-Aib-paraBrPhe”: in data set [1], the cleaved bond entry is recorded as “Nle15-Aib16, minor”.

Take `CCCC[C@H](NC(=O)[C@@H]1CCCN1C(=O)CNC(=O)[C@H](CCCCN)NC(=O)[C@H](Cc1c[nH]cn1)NC(=O)[C@H](CO)NC(=O)[C@H](CC(C)C)N(C)C(=O)[C@H](CCCNC(=N)N)NC(=O)[C@@H]1CCCN1C(=O)[C@H](CCCNC(=N)N)NC(=O)[C@@H]1CCC(=O)N1)C(=O)NC(C)(C)C(=O)N[C@@H](Cc1ccc(Br)cc1)C(=O)O` [Peptide 10, pGlu-Arg-Pro-Arg-NMeLeu-Ser-His-Lys-Gly-Pro-Nle-Aib-paraBrPhe] ([pGlu]RPR[NMeL]SHKGP[Nle][Aib][Phe(4-Br)]-OH; C-terminus assumed): in the data set “in vitro”, the fraction remaining at 0.5 h, 80 µM stood at 77 ± 3% and the fraction remaining at 1 h, 80 µM worked out at 59 ± 6%. In data set [2], the Ki was 0.1 ± 0.048 nM and the “receptor binding affinity (in words)” value is recorded as “modest improvement in receptor binding”. For the same molecule, in the data set on anesthetized mice, the “effect on heart rate (HR)” value is “significant and pronounced effect of increasing the murine HR; also recorded: had an impact on the heart rate”; the “blood pressure lowering (hypotensive) effect” value (shortened to “blood pressure lowering”) is given as “no ability to decrease blood pressure; also recorded: without inducing any vasoactive effects”.

As to `CCCC[C@H](NC(=O)[C@@H]1CCCN1C(=O)CNC(=O)[C@H](CCCCN)NC(=O)[C@H](Cc1c[nH]cn1)NC(=O)[C@H](CO)NC(=O)[C@@H](CC(C)C)NC(=O)[C@H](CCCNC(=N)N)NC(=O)[C@@H]1CCCN1C(=O)[C@H](CCCNC(=N)N)NC(=O)[C@@H]1CCC(=O)N1)C(=O)NC(C)(C)C(=O)N[C@@H](Cc1ccc(Br)cc1)C(=O)O` [Peptide 8, pGlu-Arg-Pro-Arg-D-Leu-Ser-His-Lys-Gly-Pro-Nle-Aib-paraBrPhe] ([pGlu]RPR[dL]SHKGP[Nle][Aib][Phe(4-Br)]-OH; C-terminus assumed), in the data set “in vitro”, the fraction remaining at 0.5 h, 80 µM stood at 32 ± 2% and the amount remaining at 1 h, 80 µM is 22 ± 1%. Further, in data set [2], the Ki stood at 0.12 ± 0.035 nM and the “receptor binding affinity (in words)” value is on record as “modest improvement in receptor binding”. Also, the “blood pressure lowering” value in the data set on anesthetized mice was “no ability to decrease blood pressure; also recorded: inactivity”.

For `CCCC[C@H](NC(=O)[C@@H]1CCCN1C(=O)CNC(=O)[C@H](CCCCN)NC(=O)[C@H](Cc1c[nH]cn1)NC(=O)[C@H](CO)NC(=O)[C@](C)(CC(C)C)NC(=O)[C@H](CCCNC(=N)N)NC(=O)[C@@H]1CCCN1C(=O)[C@H](CCCNC(=N)N)NC(=O)[C@@H]1CCC(=O)N1)C(=O)NC(C)(C)C(=O)N[C@@H](Cc1ccc(Br)cc1)C(=O)O` [Peptide 14, pGlu-Arg-Pro-Arg-αMeLeu-Ser-His-Lys-Gly-Pro-Nle-Aib-paraBrPhe] ([pGlu]RPR[αMeL]SHKGP[Nle][Aib][Phe(4-Br)]-OH; C-terminus assumed), in “in vitro”, the fraction remaining at 0.5 h, 80 µM worked out at 45 ± 6% and the amount remaining at 1 h, 80 µM came out at 38 ± 3%. Moreover, in data set [2], the Ki was found to be 0.17 ± 0.05 nM and the “receptor binding affinity (in words)” value is “modest improvement in receptor binding”. In addition, in the data set with anesthetized mice, the “effect on heart rate (HR)” value was “significant and pronounced effect of increasing the murine HR; also recorded: had an impact on the heart rate”; the “blood pressure lowering” value was “without inducing any vasoactive effects”.

As for `CCCC[C@H](NC(=O)[C@@H]1CCCN1C(=O)CNC(=O)[C@H](CCCCN)NC(=O)[C@H](Cc1c[nH]cn1)NC(=O)[C@H](CO)NC(=O)[C@@H](CC(C)C)NC(=O)[C@H](CCCNC(=N)N)NC(=O)[C@@H]1CCCN1C(=O)[C@H](CCCNC(=N)N)NC(=O)[C@H](CCC(N)=O)NC(=O)[C@H](CCCNC(=N)N)NC(=O)[C@H](CCCNC(=N)N)NC(=O)[C@H](Cc1ccccc1)NC(=O)[C@@H](N)CCCCN)C(=O)NC(C)(C)C(=O)N[C@@H](Cc1ccc(Br)cc1)C(=O)O` [Peptide 9] (H-KFRRQRPR[dL]SHKGP[Nle][Aib][Phe(4-Br)]-OH; N-terminus and C-terminus assumed), in “in vitro”, the amount remaining at 0.5 h, 80 µM was 80 ± 3% and the fraction remaining at 1 h, 80 µM was found to be 80 ± 4%. The Ki in data set [2] is 0.14 ± 0.056 nM. For the same molecule, in the data set on anesthetized mice, the “effect on heart rate (HR)” value is “had an impact on the heart rate” and the “blood pressure lowering” value is recorded as “inactivity; also recorded: without inducing any vasoactive effects”.

On to “Lys-Phe-Arg-Arg-Gln-Arg-Pro-αMeArg-Leu-Ser-His-Lys-Gly-Pro-Nle-Aib-paraBrPhe”, for which the cleaved bond entry in data set [1] is “Nle15-Aib16, minor”.

Take “pGlu-Arg-Pro-Arg-αMeLeu-Ser-His-Lys-Gly-Pro-Nle-Aib-paraBrPhe”: the cleaved bond entry in data set [1] is on record as “Nle11-Aib12, minor”.

“pGlu-Arg-Pro-αMeArg-Leu-Ser-His-Lys-Gly-Pro-Nle-Aib-paraBrPhe”: the cleaved bond entry in data set [1] is “Nle11-Aib12, minor”.
